Here are results for 38 molecules from patent US20130296311A1, “INHIBITORS OF HCV NS5A” (PRESIDIO PHARMACEUTICALS, INC., priority 2010, published 2013).

Structures are written as SMILES.

For the first assay, the system named is HCV 1b_Huh-Luc/Neo-ET cell line persistently expressing a bicistronic genotype 1b replicon in Huh 7 cells. Kind of assay: HCV replicon assay (luciferase readout, 72 h). The class given is cell-based, HCV genotype 1b. The following applies: Hepatitis C virus, Huh-7, 72 h, read-out: Inhibition of HCV genotype 1b. The method, boiled down: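 Huh 7 cells carrying a bicistronic genotype 1b luciferase/neo replicon received compound in triplicate the day after plating. After 72 h, replicon levels were read as Bright-Glo luciferase activity, expressed as % of control; EC50 was fitted with a four-parameter logistic and determined several times.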
Take `O=S(=O)(Cc1ccccc1)N1CCC[C@H]1c1ncc(-c2ccc(C#Cc3ccc4nc([C@@H]5CCCN5S(=O)(=O)Cc5ccccc5)[nH]c4c3)cc2)[nH]1` [Compound 1042]: the EC50 is over 1000 nM.
For the molecule `COC(=O)N[C@H](C(=O)N1CCC[C@H]1c1nc(-c2cnc3cc(C#Cc4ccc(-c5cnc([C@@H]6CCCN6C(=O)[C@@H](NC(=O)OC)C(C)C)[nH]5)cc4)ccc3c2)c[nH]1)C(C)C` [Compound 1088], the EC50 was 1 to 9.9 nM.
The same measure, in the same setting: with `COC(=O)N[C@H](C(=O)N1CCC[C@H]1c1ncc(-c2ccc(C#Cc3ccc(-c4cnc([C@@H]5CCCN5C(=O)[C@@H](c5ccccc5)N5CCC(O)CC5)[nH]4)cc3)cc2)[nH]1)C(C)C` [Compound 956] the figure was under 1 nM; with `CCN(CC)[C@@H](C(=O)N1CCC[C@H]1c1ncc(-c2ccc(C#Cc3ccc(-c4cnc([C@@H]5CCCN5C(=O)[C@H](NC(=O)OC)c5ccccc5)[nH]4)cc3)cc2)[nH]1)c1ccccc1` [Compound 175], under 1 nM.
The same measure, in the same setting: with `COC(=O)N[C@H](C(=O)N[C@@H](C)c1nc2ccc(C#Cc3ccc(-c4cnc([C@@H]5CCCN5C(=O)[C@@H](NC(=O)OC)C(C)C)[nH]4)cc3)cc2[nH]1)C(C)C` [Compound 867] the figure was under 1 nM; with `COC(=O)N[C@@H](C(=O)N1CCC[C@H]1c1ncc(-c2ccc(C#Cc3ccc(-c4cnc([C@@H]5CCCN5C(=O)[C@H](NC(=O)C5CCCN5C)c5ccccc5)[nH]4)cc3)cc2)[nH]1)c1ccccc1` (some centres unmarked) [Compound 203], under 1 nM.
With `COC(=O)N[C@H](C(=O)N1CCC[C@H]1c1ncc(-c2ccc(C#Cc3ccc(-c4cnc([C@@H]5CCCN5C(=O)[C@H](NC(=O)N(CCO)CCO)c5ccccc5)[nH]4)cc3)cc2)[nH]1)C(C)C` [Compound 973], the EC50 is under 1 nM.
The same measure, in the same setting: with `COC(=O)N[C@@H](C(=O)N1CCC[C@H]1c1ncc(-c2ccc(C#Cc3ccc(-c4cnc([C@@H]5CCCN5C(=O)[C@H](NC(=O)N5CCCCC5)c5ccccc5)[nH]4)cc3)cc2)[nH]1)c1ccccc1` [Compound 242] the figure was under 1 nM.
On the same count and under the same terms, the result for `COC(=O)N[C@@H](C(=O)N1CCC[C@H]1c1ncc(-c2ccc(C#Cc3cnc([C@@H]4CCCN4C(=O)[C@@H](c4ccccc4)N(C)C)[nH]3)cc2)[nH]1)c1ccccc1` [Compound 128] reads under 1 nM; that for `COC(=O)N[C@H](C(=O)N1CCC[C@H]1c1nc2ccc(C#Cc3ccc(-c4ccc5nc([C@@H]6CCCN6C(=O)[C@@H](NC(=O)OC)C(C)C)[nH]c5c4)nc3)cc2[nH]1)C(C)C` [compound 1083], under 1 nM.
Same read-out and setting: the result for `COC(=O)N[C@H](C(=O)N1CCC[C@H]1c1nc2c([nH]1)-c1ccc(C#Cc3ccc4nc([C@@H]5CCCN5C(=O)[C@H](NC(=O)OC5CCOCC5)c5ccccc5)[nH]c4c3)cc1CC2)C(C)C` [Compound 1104] reads under 1 nM.
Take `COC(=O)N[C@H](C(=O)N1CCC[C@H]1c1ncc(-c2ccc(C#Cc3ccc(-c4cnc([C@@H]5CCCN5C(=O)[C@@H](c5ccccc5)N5CCCC5)[nH]4)cc3)cc2)[nH]1)C(C)C` [Compound 984]: the EC50 was under 1 nM.
On the same count and under the same terms, the result for `COC(=O)N[C@H](C(=O)N1CCC[C@H]1c1nc2ccc(C#Cc3ccc(-c4cnc([C@@H]5CCCN5C(=O)[C@H](NC(=O)OC)c5ccccc5)[nH]4)cc3)cc2[nH]1)C(C)C` [Compound 1022] reads under 1 nM.
With `CCC(CC)[C@H](NC(=O)OC)C(=O)N1CCC[C@H]1c1ncc(-c2ccc(C#Cc3ccc4nc([C@@H]5CCCN5C(=O)[C@@H](NC(=O)OC)C(CC)CC)[nH]c4c3)cc2)[nH]1` [Compound 1030], the EC50 is under 1 nM.
On the same count and under the same terms, the result for `COC(=O)N[C@@H](C(=O)N1CCC[C@H]1c1ncc(C#Cc2ccc(C#Cc3cnc([C@@H]4CCCN4C(=O)[C@@H](c4ccccc4)N(C)C)[nH]3)cc2)[nH]1)c1ccccc1` [Compound 314] reads under 1 nM; that for `COC(=O)N[C@H](C(=O)N1CCC[C@H]1c1ncc(-c2ccc(C#Cc3ccc4nc([C@@H]5CCCN5C(=O)[C@@H](NC(=O)OC)[C@H](C)O)[nH]c4c3)cc2)[nH]1)[C@H](C)O` [Compound 1031], under 1 nM; that for `CC(C)(C)OC(=O)N[C@@H](C(=O)N1CCC[C@H]1CNC(=O)c1ccc(C#Cc2ccc(-c3cnc([C@@H]4CCCN4C(=O)[C@H](NC(=O)OC(C)(C)C)c4ccccc4)[nH]3)cc2)cc1)c1ccccc1` [Compound 192], 1 to 9.9 nM.
On the same count and under the same terms, the result for `COC(=O)N[C@H](C(=O)N1CCC[C@H]1c1ncc(-c2ccc(C#Cc3ccc(-c4cnc([C@@H]5CCCN5C(=O)[C@@H](NC(=O)OC)[C@@H](C)O)[nH]4)cc3)cc2)[nH]1)[C@@H](C)O` [Compound 283] reads under 1 nM.
Still for that read-out and setting: with `COC(=O)N[C@H](C(=O)N1CCC[C@H]1c1ncc(-c2ccc(C#Cc3ccc(-c4cnc([C@@H]5CCCN5C(=O)[C@@H](NC(=O)OC)[C@@H](C)O)[nH]4)cc3)cc2)[nH]1)C(C)C` [Compound 971] the figure was under 1 nM; with `COC(=O)N[C@H](C(=O)N[C@H](c1ncc(-c2ccc(C#Cc3ccc(-c4cnc([C@@H]5CCCN5C(=O)[C@@H](NC(=O)OC)C(C)C)[nH]4)cc3)cc2)[nH]1)C(C)C)C(C)C` [Compound 276], 1 to 9.9 nM; with `COC(=O)N[C@@H](C(=O)N1CCC[C@H]1c1ncc(-c2ccc(C#Cc3ccc(-c4cnc([C@@H]5CCCN5C(=O)[C@H](NC(=O)N5CC[C@H](OC)C5)c5ccccc5)[nH]4)cc3)cc2)[nH]1)c1ccccc1` [Compound 272], under 1 nM.
Consider `COC(=O)N[C@H](C(=O)N1CCC[C@H]1c1ncc(-c2ccc(C#Cc3ccc(-c4cnc([C@@H]5CCCN5C(=O)[C@H](NC(=O)N5CCC(C)(O)CC5)c5ccccc5)[nH]4)cc3)cc2)[nH]1)C(C)C` [Compound 992], for which the EC50 was under 1 nM.
The same measure, in the same setting: the result for `COC(=O)N[C@@H](C(=O)N1CCC[C@H]1c1ncc(-c2ccc(C#Cc3ccc(-c4cnc([C@@H]5CCCN5C(=O)[C@H](NC(=O)N5CCS(=O)(=O)CC5)c5ccccc5)[nH]4)cc3)cc2)[nH]1)c1ccccc1` [Compound 253] reads under 1 nM; that for `C[C@H](NC(=O)[C@@H]1CCCN1C(=O)[C@H](NC(=O)OC(C)(C)C)c1ccccc1)c1ccc(C#Cc2ccc(-c3cnc([C@@H]4CCCN4C(=O)[C@H](NC(=O)OC(C)(C)C)c4ccccc4)[nH]3)cc2)cc1` [Compound 169], 1 to 9.9 nM.
The same measure, in the same setting: the result for `C[C@@H](NC(=O)[C@@H]1CCCN1C(=O)[C@H](NC(=O)C1CC1)c1ccccc1)c1ccc(C#Cc2cnc([C@@H]3CCCN3C(=O)[C@H](NC(=O)C3CC3)c3ccccc3)[nH]2)cc1` [Compound 135] reads over 1000 nM.
Same read-out and setting: with `COC(=O)N[C@@H](C(=O)N1CCC[C@H]1c1ncc(-c2ccc(C#Cc3ccc(-c4cnc([C@@H]5CCCN5C(=O)[C@H](NC(=O)N5CC[C@H](F)C5)c5ccccc5)[nH]4)cc3)cc2)[nH]1)c1ccccc1` [Compound 270] the figure was under 1 nM; with `COC(=O)N[C@@H](C(=O)N1CCC[C@H]1c1ncc(C#Cc2ccc(-c3ccc(-c4cnc([C@@H]5CCCN5C(=O)[C@@H](c5ccccc5)N5CCCC5)[nH]4)cc3)cc2)[nH]1)c1ccccc1` [Compound 759], under 1 nM; with `COC(=O)N[C@@H](C(=O)N1CCC[C@H]1c1ncc(-c2ccc(C#Cc3ccc(-c4cnc([C@@H]5CCCN5C(=O)[C@H](NC(=O)N5CCC(O)CC5)c5ccccc5)[nH]4)cc3)cc2)[nH]1)c1ccccc1` [Compound 241], under 1 nM.
Turning to `O=C(N[C@@H](C(=O)N1CCC[C@H]1c1ncc(-c2ccc(C#Cc3ccc(-c4cnc([C@@H]5CCCN5C(=O)[C@H](NC(=O)N5CCOCC5)c5ccccc5)[nH]4)cc3)cc2)[nH]1)c1ccccc1)C1CC1` [Compound 239], the EC50 was under 1 nM.
On to `COC(=O)N[C@H](C(=O)N[C@@H](C)c1ncc(-c2ccc(C#Cc3ccc(-c4cnc([C@@H]5CCCN5C(=O)[C@@H](C(C)C)N(C)C)[nH]4)cc3)cc2)[nH]1)C(C)C` [Compound 964], for which the EC50 fell in the range of 1 to 9.9 nM.
The same measure, in the same setting: with `CC(C)[C@H](NC(=O)N1CC[C@@H](O)C1)C(=O)N1CCC[C@H]1c1ncc(-c2ccc(C#Cc3ccc(-c4cnc([C@@H]5CCCN5C(=O)[C@@H](NC(=O)N5CC[C@@H](O)C5)C(C)C)[nH]4)cc3)cc2)[nH]1` [Compound 968] the figure was 10 to 999 nM.
Turning to `O=C(N[C@@H](C(=O)N1CCC[C@H]1c1ncc(C#Cc2ccc(C#Cc3cnc([C@@H]4CCCN4C(=O)[C@H](NC(=O)N4CCOCC4)c4ccccc4)[nH]3)cc2)[nH]1)c1ccccc1)N1CCOCC1` [Compound 309], the EC50 is under 1 nM.

The assay is the same for the next values; noted with them: Hepatitis C virus, Huh-7, read-out: Inhibition of HCV genotype 1b.
As for `COC(=O)N[C@H](C(=O)N1CCC[C@H]1c1nc(C#N)c(C#Cc2ccc3cc(-c4cnc([C@@H]5CCCN5C(=O)[C@@H](NC(=O)OC)[C@@H](C)OC)[nH]4)ccc3c2)[nH]1)C1CCCC1` [Compound 1270], the EC50 was under 1 nM.
Same read-out and setting: with `CC[C@H](C)[C@H](NC(=O)OC)C(=O)N1CCC[C@H]1c1nc(C(F)(F)F)c(C#Cc2ccc3cc(-c4cnc([C@@H]5CCCN5C(=O)[C@@H](NC(=O)OC)[C@@H](C)OC)[nH]4)ccc3c2)[nH]1` [Compound 1262] the figure was under 1 nM.
On to `COC[C@H](NC(=O)OC)C(=O)N1CCC[C@H]1c1nc2ccc3cc(C#Cc4ccc5nc([C@@H]6CCCN6C(=O)[C@@H](NC(=O)OC)C(C)C)[nH]c5c4)ccc3c2[nH]1` [Compound 1288], for which the EC50 is under 1 nM.
The same measure, in the same setting: the result for `CCN(CC)C(=O)c1cc(-c2cnc([C@@H]3CCCN3C(=O)[C@@H](NC(=O)OC)C(C)C)[nH]2)ccc1C#Cc1ccc(-c2cnc([C@@H]3CCCN3C(=O)[C@@H](NC(=O)OC)C(C)C)[nH]2)cc1` [Compound 1209] reads under 1 nM; that for `COC(=O)N[C@@H](C(=O)N1CCC[C@H]1c1ncc(-c2ccc(C#Cc3ccc(-c4cnc([C@@H]5CCCN5C(=O)[C@H](NC(=O)OC)c5ccccc5)[nH]4)cc3C#N)cc2)[nH]1)c1ccccc1` [Compound 1203], under 1 nM; that for `COC(=O)N[C@H](C(=O)N1CCC[C@H]1c1ncc(-c2ccc(C#Cc3ccc(-c4cnc([C@@H]5CCCN5C(=O)[C@H](NC(=O)OC)c5cccs5)[nH]4)cc3)cc2)[nH]1)[C@@H](C)OC` [Compound 1213], under 1 nM.
